Measured values taken from ChEMBL document CHEMBL1687752, “Impact of antifungal prophylaxis on colonization and azole susceptibility of Candida species” (2009).
In brackets after ≈: the same amount, converted by molar mass.

The compounds below were run on Nakaseomyces glabratus (assay: Antifungal activity against Candida glabrata isolated from HSCT recipient 497 with acute or chronic GVHD mouth receiving antifungal drug after 114 days prophylaxis by broth microdilution method). Conditions: not given.
Format: functional
Work on CCC(C)n1ncn(-c2ccc(N3CCN(c4ccc(OCC5COC(Cn6cncn6)(c6ccc(Cl)cc6Cl)O5)cc4)CC3)cc2)c1=O (configuration not stated) [ITRACONAZOLE] yielded an MIC of 8 µg/mL (≈ 11.3 µM).

The compounds below were run on Candida albicans (assay: Antifungal activity against Candida albicans isolated from HSCT recipient 928 with acute or chronic GVHD mouth after 112 days prophylaxis by broth microdilution method). Conditions: not given.
Format: functional
CCC(C)n1ncn(-c2ccc(N3CCN(c4ccc(OCC5COC(Cn6cncn6)(c6ccc(Cl)cc6Cl)O5)cc4)CC3)cc2)c1=O (configuration not stated) [ITRACONAZOLE] gave an MIC of less than 0.015 µg/mL.

Each compound was assayed on Candida albicans (assay: Antifungal activity against Candida albicans isolated from HSCT recipients with acute or chronic GVHD prior to initiation of fluconazole therapy assessed as maximum MIC by broth microdilution method). Conditions: not given.
Format: functional
CCC(C)n1ncn(-c2ccc(N3CCN(c4ccc(OCC5COC(Cn6cncn6)(c6ccc(Cl)cc6Cl)O5)cc4)CC3)cc2)c1=O (configuration not stated) [ITRACONAZOLE] gave an MIC of 0.06 µg/mL.

These compounds were tested on Nakaseomyces glabratus (assay: Antifungal activity against Candida glabrata isolated from neutropenic subject 1187 with AML or MDS stool after 22 days prophylaxis by broth microdilution method). Conditions: 528 h.
Format: functional
With CCC(C)n1ncn(-c2ccc(N3CCN(c4ccc(OCC5COC(Cn6cncn6)(c6ccc(Cl)cc6Cl)O5)cc4)CC3)cc2)c1=O (configuration not stated) [ITRACONAZOLE] the MIC was 1 µg/mL (≈ 1.42 µM).

Each compound was assayed on Pichia kudriavzevii (assay: Antifungal activity against 1 day cultured Candida krusei isolated from neutropenic subject with AML or MDS pharynx receiving antifungal therapy for 19 days after 6 days of prophylaxis by broth microdilution method). Conditions: not given.
Format: functional
In the case of CCC(C)n1ncn(-c2ccc(N3CCN(c4ccc(OCC5COC(Cn6cncn6)(c6ccc(Cl)cc6Cl)O5)cc4)CC3)cc2)c1=O (configuration not stated) [ITRACONAZOLE], the MIC is reported as 0.125 µg/mL (≈ 0.177 µM).

Each compound was assayed on Nakaseomyces glabratus (assay: Antifungal activity against 16 days cultured Candida glabrata isolated from HSCT recipient with acute or chronic GVHD mouth receiving antifungal therapy for 31 days after 28 days of prophylaxis by broth microdilution method). Conditions: not given.
Format: functional
Work on CCC(C)n1ncn(-c2ccc(N3CCN(c4ccc(OCC5COC(Cn6cncn6)(c6ccc(Cl)cc6Cl)O5)cc4)CC3)cc2)c1=O (configuration not stated) [ITRACONAZOLE] yielded an MIC of less than 1 µg/mL.

What follows are compounds tested on Nakaseomyces glabratus (assay: Antifungal activity against 62 days cultured Candida glabrata isolated from HSCT recipient with acute or chronic GVHD mouth receiving antifungal therapy for 143 days after 116 days of prophylaxis by broth microdilution method). Conditions: not given.
Format: functional
Compound CCC(C)n1ncn(-c2ccc(N3CCN(c4ccc(OCC5COC(Cn6cncn6)(c6ccc(Cl)cc6Cl)O5)cc4)CC3)cc2)c1=O (configuration not stated) [ITRACONAZOLE] has an MIC of 8 µg/mL (≈ 11.3 µM).

These compounds were tested on Candida albicans (assay: Antifungal activity against Candida albicans isolated from HSCT recipients with acute or chronic GVHD receiving posaconazole assessed as maximum MIC by broth microdilution method). Conditions: not given.
Format: functional
CCC(C)n1ncn(-c2ccc(N3CCN(c4ccc(OCC5COC(Cn6cncn6)(c6ccc(Cl)cc6Cl)O5)cc4)CC3)cc2)c1=O (configuration not stated) [ITRACONAZOLE] was tested, and the MIC was 0.25 µg/mL.

Each compound was assayed on Candida tropicalis (assay: Antifungal activity against 2 days cultured Candida tropicalis isolated from neutropenic subject with AML or MDS stool receiving antifungal therapy for 45 days after 24 days of prophylaxis by broth microdilution method). Conditions: not given.
Format: functional
For CCC(C)n1ncn(-c2ccc(N3CCN(c4ccc(OCC5COC(Cn6cncn6)(c6ccc(Cl)cc6Cl)O5)cc4)CC3)cc2)c1=O (configuration not stated) [ITRACONAZOLE], the MIC was less than 0.015 µg/mL.

What follows are compounds tested on Nakaseomyces glabratus (assay: Antifungal activity against Candida glabrata isolated from neutropenic subject 1102 with AML or MDS stool after 26 days prophylaxis by broth microdilution method). Conditions: 624 h.
Format: functional
For CCC(C)n1ncn(-c2ccc(N3CCN(c4ccc(OCC5COC(Cn6cncn6)(c6ccc(Cl)cc6Cl)O5)cc4)CC3)cc2)c1=O (configuration not stated) [ITRACONAZOLE], the MIC was 1 µg/mL (≈ 1.42 µM).

These compounds were tested on Pichia kudriavzevii (assay: Antifungal activity against Candida krusei isolated from HSCT recipients with acute or chronic GVHD receiving fluconazole assessed as maximum MIC by broth microdilution method). Conditions: not given.
Format: functional
For CCC(C)n1ncn(-c2ccc(N3CCN(c4ccc(OCC5COC(Cn6cncn6)(c6ccc(Cl)cc6Cl)O5)cc4)CC3)cc2)c1=O (configuration not stated) [ITRACONAZOLE], the MIC was 16 µg/mL.

Each compound was assayed on Nakaseomyces glabratus (assay: Antifungal activity against Candida glabrata isolated from neutropenic subject 1331 with AML or MDS pharynx receiving antifungal drug after 21 days prophylaxis by broth microdilution method). Conditions: 504 h.
Format: functional
Work on CCC(C)n1ncn(-c2ccc(N3CCN(c4ccc(OCC5COC(Cn6cncn6)(c6ccc(Cl)cc6Cl)O5)cc4)CC3)cc2)c1=O (configuration not stated) [ITRACONAZOLE] yielded an MIC of 8 µg/mL (≈ 11.3 µM).

What follows are compounds tested on Pichia kudriavzevii (assay: Antifungal activity against 16 days cultured Candida krusei isolated from neutropenic subject with AML or MDS stool receiving antifungal therapy for 19 days after 6 days of prophylaxis by broth microdilution method). Conditions: not given.
Format: functional
CCC(C)n1ncn(-c2ccc(N3CCN(c4ccc(OCC5COC(Cn6cncn6)(c6ccc(Cl)cc6Cl)O5)cc4)CC3)cc2)c1=O (configuration not stated) [ITRACONAZOLE] gave an MIC of 0.25 µg/mL (≈ 0.354 µM).

Each compound was assayed on Nakaseomyces glabratus (assay: Antifungal activity against Candida glabrata isolated from HSCT recipients with acute or chronic GVHD receiving posaconazole assessed as maximum MIC by broth microdilution method). Conditions: not given.
Format: functional
Compound CCC(C)n1ncn(-c2ccc(N3CCN(c4ccc(OCC5COC(Cn6cncn6)(c6ccc(Cl)cc6Cl)O5)cc4)CC3)cc2)c1=O (configuration not stated) [ITRACONAZOLE] has an MIC of 8 µg/mL.

What follows are compounds tested on Nakaseomyces glabratus (assay: Antifungal activity against Candida glabrata isolated from neutropenic subject 1187 with AML or MDS stool receiving antifungal drug after 22 days prophylaxis by broth microdilution method). Conditions: 528 h.
Format: functional
With CCC(C)n1ncn(-c2ccc(N3CCN(c4ccc(OCC5COC(Cn6cncn6)(c6ccc(Cl)cc6Cl)O5)cc4)CC3)cc2)c1=O (configuration not stated) [ITRACONAZOLE] the MIC was 4 µg/mL (≈ 5.67 µM).

These compounds were tested on Pichia kudriavzevii (assay: Antifungal activity against Candida krusei isolated from HSCT recipients with acute or chronic GVHD prior to initiation of fluconazole therapy assessed as maximum MIC by broth microdilution method). Conditions: not given.
Format: functional
With CCC(C)n1ncn(-c2ccc(N3CCN(c4ccc(OCC5COC(Cn6cncn6)(c6ccc(Cl)cc6Cl)O5)cc4)CC3)cc2)c1=O (configuration not stated) [ITRACONAZOLE] the MIC was 1 µg/mL.

Each compound was assayed on Saccharomyces cerevisiae (assay: Antifungal activity against Saccharomyces cerevisiae isolated from HSCT recipient 513 with acute or chronic GVHD mouth receiving antifungal drug after 112 days prophylaxis by broth microdilution method). Conditions: not given.
Format: functional
Work on CCC(C)n1ncn(-c2ccc(N3CCN(c4ccc(OCC5COC(Cn6cncn6)(c6ccc(Cl)cc6Cl)O5)cc4)CC3)cc2)c1=O (configuration not stated) [ITRACONAZOLE] yielded an MIC of 4 µg/mL (≈ 5.67 µM).

Each compound was assayed on Candida tropicalis (assay: Antifungal activity against 2 days cultured Candida tropicalis isolated from neutropenic subject with AML or MDS pharynx receiving antifungal therapy for 45 days after 24 days of prophylaxis by broth microdilution method). Conditions: not given.
Format: functional
For CCC(C)n1ncn(-c2ccc(N3CCN(c4ccc(OCC5COC(Cn6cncn6)(c6ccc(Cl)cc6Cl)O5)cc4)CC3)cc2)c1=O (configuration not stated) [ITRACONAZOLE], the MIC was 0.03 µg/mL (≈ 0.0425 µM).

The compounds below were run on Nakaseomyces glabratus (assay: Antifungal activity against Candida glabrata isolated from HSCT recipients with acute or chronic GVHD prior to initiation of posaconazole therapy by broth microdilution method). Conditions: not given.
Format: functional
CCC(C)n1ncn(-c2ccc(N3CCN(c4ccc(OCC5COC(Cn6cncn6)(c6ccc(Cl)cc6Cl)O5)cc4)CC3)cc2)c1=O (configuration not stated) [ITRACONAZOLE] was tested, and the MIC50 was 1 µg/mL (≈ 1.42 µM) and the MIC90 was 8 µg/mL (≈ 11.3 µM).

The compounds below were run on Nakaseomyces glabratus (assay: Antifungal activity against 1 day cultured Candida glabrata isolated from neutropenic subject with AML or MDS stool receiving antifungal therapy for 25 days after 3 days of prophylaxis by broth microdilution method). Conditions: not given.
Format: functional
Work on CCC(C)n1ncn(-c2ccc(N3CCN(c4ccc(OCC5COC(Cn6cncn6)(c6ccc(Cl)cc6Cl)O5)cc4)CC3)cc2)c1=O (configuration not stated) [ITRACONAZOLE] yielded an MIC of 8 µg/mL (≈ 11.3 µM).

The compounds below were run on Candida albicans (assay: Antifungal activity against Candida albicans isolated from HSCT recipient 301 with acute or chronic GVHD mouth receiving antifungal drug after 114 days prophylaxis by broth microdilution method). Conditions: not given.
Format: functional
For CCC(C)n1ncn(-c2ccc(N3CCN(c4ccc(OCC5COC(Cn6cncn6)(c6ccc(Cl)cc6Cl)O5)cc4)CC3)cc2)c1=O (configuration not stated) [ITRACONAZOLE], the MIC was 0.25 µg/mL (≈ 0.354 µM).
